Experiment [1] concerns IL-8. Put plainly: IL-8 release by LPS stimulated monocytes. Type of experiment: cell-based.
Experiment [2] concerns LPS stimulated monocytes. In words: Cell death of LPS-treated monocytes (calcein AM/PI). In kind it is cell-based. Conditions: monocytes stimulated with LPS, increasing amount of apigenin. The protocol:
(§1) To investigate apoptosis, cells were plated at a density of 1×10^6 cells/well. After treatment, cells were collected and washed in PBS. Cells were then incubated in RPMI (no phenol red) and 1 μg/ml calcein AM for 30 min and 5×10−2 ng/ml propidium iodide (PI) for 5 min. Cells were washed twice and resuspended in PBS. Cells were viewed using a fluorescent microscope (Olympus, Melville, N.Y.). At least 200 cells were counted. Cells calcein AM positive (green) in the absence of PI (red) were considered alive while cells undergoing apoptosis are green with red. Number of green cells or green with red cells was counted over total number of cells (green alone and green with red) to express cell survival or apoptotic cell percentage respectively.
Apigenin induces cell death on LPS-treated monocytes. Monocytes were stained with calcein AM and PI as described in Material and Methods to evaluate the percentage of cell death and survival. Monocytes freshly isolated (Fresh), treated for 16 h with 10 ng/ml LPS alone, left untreated (NT) or (A) treated with different doses of apigenin, (B) with LPS and apigenin, or (C) with LPS 1 h prior to the addition of apigenin. Values represent the means ±SEM (N=#, *P<0.05 compared to LPS alone).

The test system of experiment [3] is caspase-3. In words: Caspase-3 activity, DEVD-AFC assay, U937 lysates. In kind it is cell-based, human. The following applies: U937, 50 μM apigenin; remained high even after 24 h. As for the experimental part:
(§2) FIG. 3. Apigenin induces caspase activation in monocytic leukemia. THP-1 (top) and U937 (bottom) leukemia cells were treated for various lengths of time with 50 μM apigenin or DMSO (NT). (A and C) Caspase-9 activity was determined by the LEHDAFC assay. (B and D) Caspase-3 activity was determined by the DEVD-AFC assay. Data represents means ±SEM (N=3).
For measurements of caspase activity, cells were plated at a density of 1.5×10^6 cells/well. After treatment, cells extracts were prepared as previously described (Doseff, A. I., Baker J. H., Bourgeois T. A. and Wewers M. D. (2003) Interleukin-4-induced zpoptosis entails caspase activation and suppression of extracellular signal-regulated kinase phosphorylation. Am. J. Resp. Cell Mol. Biol., 29, 367-374). Protein extracts were incubated with 20 μM DEVD-AFC to determine caspase-3 activity or LEHD-AFC to determine caspase-9 activity (Enzyme Systems Products, Livermore, Calif.) in a cytobuffer as previously described (Doseff, A. I., Baker J. H., Bourgeois T. A. and Wewers M. D. (2003) Interleukin-4-induced zpoptosis entails caspase activation and suppression of extracellular signal-regulated kinase phosphorylation. Am. J. Resp. Cell Mol. Biol., 29, 367-374). Levels of released AFC were measured using Cytofluor 400 fluorimeter (Filters: excitation 400 nm, emission 508 nm; Perspective Co., Framingham, Mass.).

The test system of experiment [4] is Akt. Put plainly: Western blot of Akt phosphorylation and total Akt in THP-1 cells. Type of experiment: cell-based, human. The following applies: THP-1, 50 μM apigenin. As for the experimental part:
FIG. 5. Apigenin affects Akt phosphorylation. THP-1 cells were treated with 50 μM apigenin for different lengths of time. Lysates were separated by SDS-PAGE, transferred and immunoblotted with anti-phospho-Akt (pSer 473), anti-phospho-Akt (pThr 308), total Akt, and â-tubulin antibodies.
FIG. 6. Apigenin induces the activation of p38 and inactivation of Akt. A. THP-1 cells were treated with 50 μM apigenin for various lengths of time. Lysates were separated by SDS-PAGE, transferred and analyzed by immunoblots with anti-phospho-p38 (pp 38) and anti-total-p38 antibodies. B. […] Lysates were analyzed by immunoblotting with anti-phospho-Akt (pSer 473), anti-phospho-p38 (p-p38), and anti-total-p38 antibodies.
Extracts from 3×10^6 cells were prepared by incubating cells for 30 min on ice in lysis buffer (50 mM Tris, 10 mM EDTA 0.5% NP-40, 10 mM Na-glycerophosphate, 5 mM Na-pyrophosphate, 50 mM NaF, 1 mM orthovanadate, 1 mM DTT, 0.1 mM PMSF, 2 μg/ml of protease inhibitors: chymostatin, pepstatin, antipain, and leupeptin). Cell lysates were centrifuged (14,000×g for 10 min at 4° C.) and the supernatants were stored for at −70° C. for future analysis. Equal amounts of protein were loaded and separated by SDS-PAGE, transferred onto nitrocellulose membranes and probed with antibodies of interest followed by horseradish peroxidase conjugated secondary antibody and visualized by enhanced chemiluminescence (Amersham, Arlington Heights, Ill.). Phospho-Ser473-Akt, phospho-Thr308-Alt, total AKT, phospho-p38 and total p38 antibodies were obtained from Cell Signaling (Boston, Mass.). â-tubulin antibody was obtained from Upstate (Charlottesville, Va.).

The subject of experiment [5] is THP-1 cells. In words: Cell survival and apoptosis by calcein AM/PI staining. In kind it is cell-based, human. As for the experimental part: FIG. 2. Apigenin induces cell death in monocytic leukemia cells. THP-1 and U937 leukemia cells were treated for various lengths of time with 50 μM apigenin or left untreated (NT) and stained with calcein AM and PI as described in Material and Methods to evaluate the percentage of cell survival. (A) THP cells after 12 h cells treated with 50 μM apigenin or with DMSO (NT). (B) The percentage of cell survival represented by means ±SEM (N=3).
(§3) FIG. 4. Caspase-3 activation is required for apigenin-induced apoptosis. THP-1 cells were treated for 12 h with 50 μM apigenin alone or pretreated with 20 μM DEVD-FMK for 1 h prior to the addition of apigenin. (A) Cells were then stained with calcein AM and 24 PI and the percentage of apoptotic cells was determined. (B) Lysates from cells treated as described above were used to determined caspase-3 activity by the DEVD-AFC assay. All data represents means ±SEM (N=5).
(§4) FIG. 7. Apigenin induced p38 activation is not required for apoptosis. A. Cells were pretreated for 1 h prior to addition of 50 μM apigenin or DMSO (−) with 10 or 25 μM concentrations of SB203580 or DMSO (−) for 12 h. The percentage of apoptotic cells was determined by calcein AM with PI stained cells. Data represents means ±SEM (N=5 p>0.05). B. Lysates from the same treatments were used to determined caspase-3 activity by the DEVD-AFC assay. Data represents means ±SEM (N=5 p>0.05).
as §1

The subject of experiment [6] is caspase-3. Put plainly: Caspase-3 activity, DEVD-AFC assay, THP-1 lysates. Type of experiment: cell-based, human. The following applies: THP-1, 50 μM apigenin. The protocol: as §2, §3, §4
For measurements of caspase activity, cells were plated at a density of 1.5×10^6 cells/well. After treatment, cells extracts were prepared as previously described (Doseff, A. I., Baker J. H., Bourgeois T. A. and Wewers M. D. (2003) Interleukin-4-induced zpoptosis entails caspase activation and suppression of extracellular signal-regulated kinase phosphorylation. Am. J. Resp. Cell Mol. Biol., 29, 367-374). […] Levels of released AFC were measured using Cytofluor 400 fluorimeter (Filters: excitation 400 nm, emission 508 nm; Perspective Co., Framingham, Mass.).

In experiment [7] the test system is TNFα. Put plainly: TNFα release by LPS stimulated monocytes. In kind it is cell-based.

With `O=c1cc(-c2ccc(O)cc2)oc2cc(O)cc(O)c12` [apigenin], the “release of IL-8” value in experiment [1] is reported as “inhibits”. The “death of LPS stimulated monocytes” value in experiment [2] is given as “induces the death of such stimulated monocytes in an apigenin-dose dependent manner”. Also, the “caspase-3 activity, time course” value in experiment [3] is “detected at 9 h”; in experiment [6], “detected after 6 h and similarly to caspase-9, the activity was sustained at 9 h, but decreased after 12 h”. Also, the “total Akt protein levels” value in experiment [4] (after six hours) was “dramatically decreased”. Further, in experiment [4] (during the first hour), the “Akt pSer473 phosphorylation” value is reported as “rapid decrease”. Further, the “Akt pThr308 phosphorylation” value in experiment [4] (first six hours) was “not significantly affected”. Further, the viability at 50 µM in experiment [5] (Homo sapiens, THP-1, 12 h, read-out: cell viability (survival)) was 30%. Also, the apoptotic cells in experiment [5] (THP-1, 50 μM apigenin alone, 12 h) is recorded as 70%. The cell survival in experiment [5] (THP-1, 50 μM, 9 h, reduced to) is 80%. Also, the “release of TNFα” value in experiment [7] is “inhibits”.

In general, viability refers to a per cent measure of how many cells are alive, often set against a control.

Values taken from US20080200538A1, “Inhibition of Monocyte Survival, Differentiation, or Proliferation” (The Ohio State University Research Foundation, priority 2005, published 2008).
